Experimental data reported in patent US20230310428A1, “EGFR INHIBITOR AND PREPARATION METHOD AND USE THEREOF” (HONGYUN BIOTECH CO., LTD., priority 2020, published 2023).
Read-outs that look alike come from different tables or passages of the source.

What was measured:
Experiment in all cases: Growth inhibitory activity of compounds on BaF3 cell lines stably transfected with kinase (MTS, 48 h)
Format in all cases: cell-based
[1] = target: T1, various mutants of kinase EGFR (BaF3 cell lines stably transfected with kinase) (Homo sapiens, UniProt P00533, L858R)
T1 construct: expressed in transfected cells; host or cells: BaF3
T1 sequence (P00533 25-1210 L858R): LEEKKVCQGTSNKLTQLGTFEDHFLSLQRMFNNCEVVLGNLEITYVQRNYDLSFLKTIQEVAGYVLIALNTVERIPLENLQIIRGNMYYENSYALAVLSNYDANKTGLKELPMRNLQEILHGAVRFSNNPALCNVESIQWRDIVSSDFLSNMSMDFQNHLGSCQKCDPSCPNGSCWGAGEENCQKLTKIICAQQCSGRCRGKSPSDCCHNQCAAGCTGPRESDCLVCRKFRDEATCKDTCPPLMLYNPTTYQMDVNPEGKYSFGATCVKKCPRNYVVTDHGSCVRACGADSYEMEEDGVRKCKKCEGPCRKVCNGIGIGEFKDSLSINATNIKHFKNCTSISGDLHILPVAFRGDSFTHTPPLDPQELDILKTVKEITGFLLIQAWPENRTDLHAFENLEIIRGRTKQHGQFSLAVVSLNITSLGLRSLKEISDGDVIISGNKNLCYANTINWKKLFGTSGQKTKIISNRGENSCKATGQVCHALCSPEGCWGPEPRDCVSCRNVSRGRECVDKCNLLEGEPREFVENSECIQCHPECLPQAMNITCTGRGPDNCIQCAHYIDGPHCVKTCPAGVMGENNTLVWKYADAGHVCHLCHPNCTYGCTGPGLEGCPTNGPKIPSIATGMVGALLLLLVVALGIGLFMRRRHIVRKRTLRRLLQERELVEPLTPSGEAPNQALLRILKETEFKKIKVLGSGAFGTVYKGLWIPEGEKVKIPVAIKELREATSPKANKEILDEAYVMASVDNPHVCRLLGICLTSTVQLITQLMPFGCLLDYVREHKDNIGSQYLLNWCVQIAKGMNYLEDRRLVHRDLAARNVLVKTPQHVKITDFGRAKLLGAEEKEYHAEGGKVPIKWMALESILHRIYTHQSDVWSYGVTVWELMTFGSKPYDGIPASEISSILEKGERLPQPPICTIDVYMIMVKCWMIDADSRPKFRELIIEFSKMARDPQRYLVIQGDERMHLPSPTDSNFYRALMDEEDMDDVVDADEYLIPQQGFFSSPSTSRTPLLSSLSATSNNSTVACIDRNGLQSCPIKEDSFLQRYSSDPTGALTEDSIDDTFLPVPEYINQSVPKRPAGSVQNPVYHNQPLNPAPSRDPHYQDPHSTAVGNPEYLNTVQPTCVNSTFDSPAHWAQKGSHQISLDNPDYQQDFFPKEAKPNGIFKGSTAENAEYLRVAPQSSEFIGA
Protocol: (§1) The activity of compounds against various mutants of kinase EGFR was evaluated by their effect of inhibiting growth of BaF3 cell lines stably transfected with kinase. The specific test method was given as follows:
(§2) 1) Culture medium: DMEM (Dulbecco’s modified eagle medium) or RPMI 1640 (containing 10% fetal bovine serum, 100 µg/mL ampicillin, 100 µg/mL streptomycin).
(§3) 2) Reagent: MTS reaction solution (containing 2 mg/mL of MTS [3-(4,5-dimethylthiazol-2-yl)-5-(3-carboxymethoxyphenyl)-2-(4-sulfophenyl)-2H-tetrazoliu m, inner Salt]; 100 µg/mL of PES ([…])).
(§4) 3) Compound test: cells were incubated into a 96-well culture plate, the volume of cytosol was 90 µL, and then 10 µL of the compound at each gradient concentration was added. That is, the highest concentration was 10 µM, which was diluted stepwise by ⅓, and 8 concentration points were set in total; 0.1% DMSO (dimethyl sulfoxide) was contained in the system. The cell plate with uniformly mixed compound was cultured in a cell culture incubator (37° C.; 5% CO2) for 48 h, then 20 µL of MTS reaction solution was added, uniformly mixed and incubated in the cell culture incubator (37° C.; 5% CO2) for 1-4 h. OD values at 490 nm were measured by a microplate reader (VARIOSKAN FLASH, Thermo). Two parallels were set in each group of experiments, with 0.1% (a final concentration) DMSO as a negative control, and a culture medium without cells and compounds as a blank control. The cell growth inhibition rate was calculated by the following formula: […]
(§5) 4) IC50 calculation: The semi-inhibitory concentration of the compounds acting on cells was calculated using GradPad Prism 5 software according to the measured cell growth inhibition rate.

[2] = target: T2, various mutants of kinase EGFR (BaF3 cell lines stably transfected with kinase) (Homo sapiens, UniProt P00533, C797S/L858R/T790M)
T2 construct: expressed in transfected cells; host or cells: BaF3
Protocol: as §1, §2, §3, §4, §5

[3] = target: T3, various mutants of kinase EGFR (BaF3 cell lines stably transfected with kinase) (Homo sapiens, UniProt P00533, T790M, form not given)
T3 construct: other: BaF3 cells stably transfected with EGFR Δ19Del/T790M; MTS, 48 h; other: BaF3 cell line stably transfected with EGFR Δ19Del/T790M; MTS, 48
T3 sequence (P00533 with tags, fused parts or gaps DEL746-750/T790M, form open): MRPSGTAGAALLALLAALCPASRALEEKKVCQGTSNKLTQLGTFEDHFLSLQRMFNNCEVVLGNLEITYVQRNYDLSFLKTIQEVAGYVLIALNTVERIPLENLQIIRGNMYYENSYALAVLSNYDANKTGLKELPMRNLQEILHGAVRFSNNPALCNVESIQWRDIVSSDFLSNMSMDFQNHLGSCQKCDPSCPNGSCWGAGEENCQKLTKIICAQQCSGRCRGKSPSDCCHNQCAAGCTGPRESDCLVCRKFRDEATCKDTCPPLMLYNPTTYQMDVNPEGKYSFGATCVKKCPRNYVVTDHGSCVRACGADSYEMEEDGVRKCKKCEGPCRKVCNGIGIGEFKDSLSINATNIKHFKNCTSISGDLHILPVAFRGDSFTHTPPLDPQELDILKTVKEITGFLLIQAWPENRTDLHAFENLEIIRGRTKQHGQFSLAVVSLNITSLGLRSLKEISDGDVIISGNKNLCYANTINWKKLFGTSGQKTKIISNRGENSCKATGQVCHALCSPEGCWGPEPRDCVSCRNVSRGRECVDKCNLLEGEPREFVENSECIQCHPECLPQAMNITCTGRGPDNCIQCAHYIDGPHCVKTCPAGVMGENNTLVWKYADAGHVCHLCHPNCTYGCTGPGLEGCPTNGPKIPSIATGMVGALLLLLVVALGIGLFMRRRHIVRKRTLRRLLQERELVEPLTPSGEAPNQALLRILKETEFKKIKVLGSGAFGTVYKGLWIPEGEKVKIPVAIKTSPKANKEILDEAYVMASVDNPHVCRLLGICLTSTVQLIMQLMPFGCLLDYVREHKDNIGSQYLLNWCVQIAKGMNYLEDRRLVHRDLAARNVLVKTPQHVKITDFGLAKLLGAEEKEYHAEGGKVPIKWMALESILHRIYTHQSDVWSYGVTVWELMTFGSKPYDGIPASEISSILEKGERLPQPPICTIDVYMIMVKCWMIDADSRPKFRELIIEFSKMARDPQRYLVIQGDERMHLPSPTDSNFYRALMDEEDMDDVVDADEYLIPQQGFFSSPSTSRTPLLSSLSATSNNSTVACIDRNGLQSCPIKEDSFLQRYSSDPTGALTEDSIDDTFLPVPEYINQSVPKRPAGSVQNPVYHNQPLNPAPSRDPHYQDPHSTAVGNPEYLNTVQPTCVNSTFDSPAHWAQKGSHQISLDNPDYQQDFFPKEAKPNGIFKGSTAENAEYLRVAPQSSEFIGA
Protocol: as §1, §2, §3, §4, §5

[4] = target: T4, various mutants of kinase EGFR (BaF3 cell lines stably transfected with kinase) (Homo sapiens, UniProt P00533, L858R/T790M)
T4 construct: expressed in transfected cells; host or cells: BaF3
T4 sequence (P00533 25-1210 T790M/L858R): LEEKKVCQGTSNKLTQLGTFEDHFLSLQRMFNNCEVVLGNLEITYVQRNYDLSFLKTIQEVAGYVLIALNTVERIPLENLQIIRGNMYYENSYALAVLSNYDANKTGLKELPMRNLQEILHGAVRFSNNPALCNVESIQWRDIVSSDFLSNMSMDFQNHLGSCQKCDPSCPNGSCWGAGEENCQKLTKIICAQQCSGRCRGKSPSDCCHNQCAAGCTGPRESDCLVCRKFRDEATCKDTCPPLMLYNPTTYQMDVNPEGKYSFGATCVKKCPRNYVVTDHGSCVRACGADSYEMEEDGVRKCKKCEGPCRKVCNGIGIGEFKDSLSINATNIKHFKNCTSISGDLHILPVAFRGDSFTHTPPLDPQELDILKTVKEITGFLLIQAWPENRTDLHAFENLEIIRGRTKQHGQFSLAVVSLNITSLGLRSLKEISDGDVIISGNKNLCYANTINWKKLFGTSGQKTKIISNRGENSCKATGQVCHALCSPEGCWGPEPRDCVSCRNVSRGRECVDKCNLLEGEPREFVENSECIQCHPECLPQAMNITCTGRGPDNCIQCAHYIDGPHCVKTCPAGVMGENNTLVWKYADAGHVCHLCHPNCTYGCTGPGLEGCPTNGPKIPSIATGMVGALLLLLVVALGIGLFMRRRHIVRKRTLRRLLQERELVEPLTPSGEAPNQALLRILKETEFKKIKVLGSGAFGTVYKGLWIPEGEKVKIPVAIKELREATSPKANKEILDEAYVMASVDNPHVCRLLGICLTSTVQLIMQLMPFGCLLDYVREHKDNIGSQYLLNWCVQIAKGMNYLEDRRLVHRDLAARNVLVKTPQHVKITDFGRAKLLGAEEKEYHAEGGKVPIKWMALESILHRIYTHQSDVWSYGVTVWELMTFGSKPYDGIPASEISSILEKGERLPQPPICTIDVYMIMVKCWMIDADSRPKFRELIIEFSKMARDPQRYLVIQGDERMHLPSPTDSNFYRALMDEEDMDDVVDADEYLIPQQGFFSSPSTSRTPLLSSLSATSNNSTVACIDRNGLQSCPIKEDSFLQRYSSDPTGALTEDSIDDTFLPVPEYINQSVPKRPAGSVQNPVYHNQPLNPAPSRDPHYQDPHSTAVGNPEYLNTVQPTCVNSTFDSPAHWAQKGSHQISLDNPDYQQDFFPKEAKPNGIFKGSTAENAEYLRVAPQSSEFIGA
Protocol: as §1, §2, §3, §4, §5

[5] = target: T5, various mutants of kinase EGFR (BaF3 cell lines stably transfected with kinase) (Homo sapiens, UniProt P00533, T790M/C797S, form not given)
T5 construct: other: BaF3 cells stably transfected with EGFR Δ19Del/T790M/C797S; MTS, 48; other: BaF3 cell line stably transfected with EGFR Δ19Del/T790M/C7
Protocol: as §1, §2, §3, §4, §5

[6] = target: T6, various mutants of kinase EGFR (BaF3 cell lines stably transfected with kinase) (Homo sapiens, UniProt P00533)
T6 construct: other: BaF3 cells stably transfected with EGFR Δ19Del; MTS, 48 h; other: BaF3 cell line stably transfected with EGFR Δ19Del
T6 sequence (P00533 with tags, fused parts or gaps DEL746-750): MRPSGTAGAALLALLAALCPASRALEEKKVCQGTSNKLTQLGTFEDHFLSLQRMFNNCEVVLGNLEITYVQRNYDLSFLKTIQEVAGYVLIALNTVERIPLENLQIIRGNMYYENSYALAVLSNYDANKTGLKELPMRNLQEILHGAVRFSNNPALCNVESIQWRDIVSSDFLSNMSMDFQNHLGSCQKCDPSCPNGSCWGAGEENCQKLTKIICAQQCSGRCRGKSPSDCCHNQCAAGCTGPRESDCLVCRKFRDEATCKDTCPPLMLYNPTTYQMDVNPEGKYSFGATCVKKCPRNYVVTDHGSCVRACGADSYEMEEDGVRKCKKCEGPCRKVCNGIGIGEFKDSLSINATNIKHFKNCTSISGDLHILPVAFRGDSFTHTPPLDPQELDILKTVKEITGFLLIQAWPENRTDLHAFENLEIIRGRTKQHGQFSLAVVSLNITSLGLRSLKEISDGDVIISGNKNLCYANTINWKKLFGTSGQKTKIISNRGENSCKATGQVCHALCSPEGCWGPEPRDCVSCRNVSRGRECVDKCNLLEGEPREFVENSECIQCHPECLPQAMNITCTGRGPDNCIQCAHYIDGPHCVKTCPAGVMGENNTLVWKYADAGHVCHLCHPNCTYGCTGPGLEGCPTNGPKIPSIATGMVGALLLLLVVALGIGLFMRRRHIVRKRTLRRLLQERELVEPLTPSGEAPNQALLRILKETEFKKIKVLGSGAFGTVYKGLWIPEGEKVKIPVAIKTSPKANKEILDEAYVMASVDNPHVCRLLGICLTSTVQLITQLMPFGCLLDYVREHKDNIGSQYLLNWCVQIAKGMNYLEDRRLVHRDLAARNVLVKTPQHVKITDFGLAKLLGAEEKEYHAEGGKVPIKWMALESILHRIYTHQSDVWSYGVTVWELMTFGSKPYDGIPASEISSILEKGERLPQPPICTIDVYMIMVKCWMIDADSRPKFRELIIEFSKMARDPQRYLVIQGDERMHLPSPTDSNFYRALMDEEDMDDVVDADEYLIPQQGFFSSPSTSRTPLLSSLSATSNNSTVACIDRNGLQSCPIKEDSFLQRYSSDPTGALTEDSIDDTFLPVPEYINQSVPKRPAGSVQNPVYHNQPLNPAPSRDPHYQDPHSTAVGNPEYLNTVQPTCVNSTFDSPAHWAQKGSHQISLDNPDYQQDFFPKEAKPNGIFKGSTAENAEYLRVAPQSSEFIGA
Protocol: as §1, §2, §3, §4, §5

[7] = BaF3 cells stably transfected with EGFR L858R, read-out: IC50, growth inhibition, L858R
[8] = BaF3 cells stably transfected with EGFR L858R/T790M/C797S, read-out: IC50, growth inhibition, L858R/T790M/C797S
[9] = BaF3 cells stably transfected with EGFR Δ19Del/T790M, read-out: IC50, growth inhibition, Δ19Del/T790M
[10] = BaF3 cells stably transfected with EGFR L858R/T790M, read-out: IC50, growth inhibition, L858R/T790M
[11] = BaF3 cells stably transfected with EGFR Δ19Del/T790M/C797S, read-out: IC50, growth inhibition, Δ19Del/T790M/C797S
[12] = BaF3 cells stably transfected with EGFR Δ19Del, read-out: IC50, growth inhibition, Δ19Del
[13] = BaF3 cell line stably transfected with EGFR L858R, read-out: L858R growth inhibitory activity IC50
[14] = BaF3 cell line stably transfected with EGFR L858R/T790M/C797S, read-out: L858R/T790M/ C797S growth inhibitory activity IC50
[15] = BaF3 cell line stably transfected with EGFR Δ19Del/T790M, read-out: Δ19Del/ T790M growth inhibitory activity IC50
[16] = BaF3 cell line stably transfected with EGFR L858R/T790M, read-out: L858R/ T790M growth inhibitory activity IC50
[17] = BaF3 cell line stably transfected with EGFR Δ19Del/T790M/C797S, read-out: Δ19Del/T790M/ C797S growth inhibitory activity IC50
[18] = BaF3 cell line stably transfected with EGFR Δ19Del, read-out: Δ19Del growth inhibitory activity IC50

IC50 [1, 7] [µM] | IC50 [2, 8] [µM] | IC50 [3, 9] [µM] | IC50 [4, 10] [µM] | IC50 [5, 11] [µM] | IC50 [6, 12] [µM] | IC50 [1, 13] [µM] | IC50 [2, 14] [µM] | IC50 [3, 15] [µM] | IC50 [4, 16] [µM] | IC50 [5, 17] [µM] | IC50 [6, 18] [µM] | SMILES
0.05 to 0.5 | 0.05 to 0.5 | ≤ 0.05 | 0.05 to 0.5 | 0.05 to 0.5 | 0.05 to 0.5 | – | – | – | – | – | – | CCc1cc(Nc2ncc(Cl)c(Nc3ccc4nccnc4c3N(C)S(=O)(=O)C(F)(F)F)n2)c(OC)cc1N1CCC(N2CCN(C)CC2)CC1 [Compound I-130]
0.05 to 0.5 | 0.05 to 0.5 | ≤ 0.05 | ≤ 0.05 | ≤ 0.05 | 0.05 to 0.5 | – | – | – | – | – | – | CCS(=O)(=O)N(C)c1c(Nc2nc(Nc3ccc(N4CCC(N5CCN(C)CC5)CC4)cc3OC)ncc2Br)ccc2nccnc12 [Compound I-214]
0.5 to 2.5 | 0.05 to 0.5 | 0.5 to 2.5 | 0.5 to 2.5 | 0.5 to 2.5 | 0.5 to 2.5 | – | – | – | – | – | – | COc1cc(N2CCN(C)CC2)c(C)cc1Nc1ncc(Cl)c(Nc2ccc3nccnc3c2N(C)S(=O)(=O)C(F)(F)F)n1 [Compound I-266]
≤ 0.05 | ≤ 0.05 | ≤ 0.05 | ≤ 0.05 | ≤ 0.05 | ≤ 0.05 | – | – | – | – | – | – | COc1cc(N2CCC(N3CCN(C)CC3)CC2)c(C)cc1Nc1ncc(Cl)c(Nc2ccc3nccnc3c2N(C2CC2)S(C)(=O)=O)n1 [Compound I-159]
≤ 0.05 | 0.05 to 0.5 | 0.05 to 0.5 | 0.05 to 0.5 | 0.05 to 0.5 | 0.05 to 0.5 | – | – | – | – | – | – | COc1cc(N2CCC(N3CCN(C)CC3)CC2)c(C(C)C)cc1Nc1ncc(Cl)c(Nc2ccc3nccnc3c2N(C)S(C)(=O)=O)n1 [Compound I-288]
0.05 to 0.5 | 0.05 to 0.5 | 0.05 to 0.5 | 0.05 to 0.5 | 0.05 to 0.5 | 0.05 to 0.5 | – | – | – | – | – | – | CN1CCN(C2CCN(c3ccc(Nc4ncc(C(F)(F)F)c(Nc5ccc6nccnc6c5N(C)S(C)(=O)=O)n4)c(OC(F)(F)F)c3)CC2)CC1 [Compound I-200]
– | – | – | – | – | – | 0.05 to 0.5 | 0.05 to 0.5 | 0.05 to 0.5 | 0.05 to 0.5 | 0.05 to 0.5 | 0.05 to 0.5 | COc1cc(N2CCC(N3CCN(C)CC3)CC2)c(C)cc1Nc1ncc(C(C)C)c(Nc2ccc3nccnc3c2N(C)S(C)(=O)=O)n1 [Compound I-326]
≤ 0.05 | ≤ 0.05 | ≤ 0.05 | ≤ 0.05 | ≤ 0.05 | ≤ 0.05 | – | – | – | – | – | – | CCc1cc(Nc2ncc(Cl)c(Nc3ccc4nccnc4c3N(CC)S(C)(=O)=O)n2)c(OC)cc1N1CCN(C)CC1 [Compound I-232]
– | – | – | – | – | – | ≤ 0.05 | ≤ 0.05 | ≤ 0.05 | ≤ 0.05 | ≤ 0.05 | 0.05 to 0.5 | CN1CCN(C2CCN(c3c(F)cc(Nc4ncc(Br)c(Nc5ccc6nccnc6c5N(C)S(C)(=O)=O)n4)cc3F)CC2)CC1 [Compound I-354]
0.05 to 0.5 | 0.5 to 2.5 | 0.05 to 0.5 | 0.05 to 0.5 | 0.5 to 2.5 | 0.5 to 2.5 | – | – | – | – | – | – | CCN(c1c(Nc2nc(Nc3cc(C)c(N4CCC(N5CCN(C)CC5)CC4)nc3OC)ncc2Br)ccc2nccnc12)S(C)(=O)=O [Compound I-297]
0.5 to 2.5 | 0.05 to 0.5 | 0.5 to 2.5 | 0.5 to 2.5 | 0.05 to 0.5 | 0.5 to 2.5 | – | – | – | – | – | – | COc1cc(N2CCC(N3CCN(C)CC3)CC2)c(CC2CC2)cc1Nc1ncc(Br)c(Nc2ccc3nccnc3c2N(C)S(=O)(=O)C(F)(F)F)n1 [Compound I-259]

The remaining lines, values behind:

SMILES | IC50 [1, 7] [µM] | IC50 [2, 8] [µM] | IC50 [3, 9] [µM] | IC50 [4, 10] [µM] | IC50 [5, 11] [µM] | IC50 [6, 12] [µM] | IC50 [1, 13] [µM] | IC50 [2, 14] [µM] | IC50 [3, 15] [µM] | IC50 [4, 16] [µM] | IC50 [5, 17] [µM] | IC50 [6, 18] [µM]
COc1cc(N2CCC(N(C)C)C2)c(C)cc1Nc1ncc(C(F)(F)F)c(Nc2ccc3nccnc3c2N(C)S(C)(=O)=O)n1 (stereo not drawn) [Compound I-209] | ≤ 0.05 | ≤ 0.05 | ≤ 0.05 | ≤ 0.05 | ≤ 0.05 | 0.05 to 0.5 | – | – | – | – | – | –
COc1ccc(N2CCC(O)CC2)cc1Nc1ncc(C(F)(F)F)c(Nc2ccc3nccnc3c2N(C)S(C)(=O)=O)n1 [Compound I-369] | – | – | – | – | – | – | 0.05 to 0.5 | ≤ 0.05 | ≤ 0.05 | ≤ 0.05 | ≤ 0.05 | 0.05 to 0.5
COc1cc(N2CCC(N(C)C)C2)c(C)cc1Nc1nc(Nc2ccc3nccnc3c2N(C)S(C)(=O)=O)c2sccc2n1 (stereo not drawn) [II-1-14] | – | – | – | – | – | – | 0.5 to 2.5 | 0.5 to 2.5 | 0.5 to 2.5 | 0.05 to 0.5 | 0.05 to 0.5 | 0.5 to 2.5
COc1cc(N2CCN(C)CC2)c(C)cc1Nc1nc(Nc2ccc3nccnc3c2N(C)S(C)(=O)=O)c2sccc2n1 [II-1-12] | – | – | – | – | – | – | 0.5 to 2.5 | 0.05 to 0.5 | 0.5 to 2.5 | 0.05 to 0.5 | 0.05 to 0.5 | 0.5 to 2.5
CCc1cc(Nc2ncc(F)c(Nc3ccc4nccnc4c3N(C)S(C)(=O)=O)n2)c(OC)cc1N1CCC(N(C)C)C1 (stereo not drawn) [Compound I-188] | ≤ 0.05 | 0.05 to 0.5 | ≤ 0.05 | 0.05 to 0.5 | ≤ 0.05 | 0.05 to 0.5 | – | – | – | – | – | –
COc1cc(N2CCC(O)CC2)ccc1Nc1ncc(Br)c(Nc2ccc3nccnc3c2N(C)S(C)(=O)=O)n1 [Compound I-44] | 0.05 to 0.5 | ≤ 0.05 | ≤ 0.05 | ≤ 0.05 | ≤ 0.05 | 0.05 to 0.5 | – | – | – | – | – | –
CCc1cc(Nc2ncc(Br)c(Nc3ccc4nccnc4c3NS(C)(=O)=O)n2)c(OC)cc1N1CCC(N(C)C)CC1 [Compound I-410] | – | – | – | – | – | – | ≤ 0.05 | ≤ 0.05 | ≤ 0.05 | ≤ 0.05 | ≤ 0.05 | ≤ 0.05
CCn1cc(Nc2ncc(Br)c(Nc3ccc4nccnc4c3N(C)S(C)(=O)=O)n2)c(C)n1 [Compound I-387] | – | – | – | – | – | – | 0.5 to 2.5 | 0.05 to 0.5 | 0.5 to 2.5 | 0.05 to 0.5 | 0.05 to 0.5 | 0.5 to 2.5
CCc1cc(Nc2ncc([N+](=O)[O-])c(Nc3ccc4nccnc4c3N(C)S(C)(=O)=O)n2)c(OC)cc1N1CCC(N(C)C)C1 (stereo not drawn) [Compound I-196] | 0.05 to 0.5 | 0.05 to 0.5 | 0.05 to 0.5 | 0.05 to 0.5 | ≤ 0.05 | 0.05 to 0.5 | – | – | – | – | – | –
COc1cc(N2CCN(C)CC2)ccc1Nc1ncc(Br)c(Nc2ccc3nccnc3c2N(C)S(C)(=O)=O)n1 [Compound I-38] | 0.05 to 0.5 | ≤ 0.05 | ≤ 0.05 | ≤ 0.05 | ≤ 0.05 | 0.05 to 0.5 | – | – | – | – | – | –
CCc1cc(Nc2ncc(Br)c(Nc3ccc4nccnc4c3N(C)S(C)(=O)=O)n2)c(OC)cc1N1CCC(N(C)C)C1 (stereo not drawn) [Compound I-17] | ≤ 0.05 | ≤ 0.05 | ≤ 0.05 | ≤ 0.05 | ≤ 0.05 | ≤ 0.05 | – | – | – | – | – | –
CN1CCN(S(=O)(=O)c2ccc(Nc3ncc(Br)c(Nc4ccc5nccnc5c4N(C)S(C)(=O)=O)n3)cc2)CC1 [Compound I-49] | 0.05 to 0.5 | 0.05 to 0.5 | 0.05 to 0.5 | 0.05 to 0.5 | 0.05 to 0.5 | 0.05 to 0.5 | – | – | – | – | – | –
